The values that follow come from ChEMBL document CHEMBL3875182 (Bioorg Med Chem, 2017).

For orientation: IC50 means the midpoint of a concentration-inhibition curve. The MIC is the lowest concentration found to suppress growth.

Series [1] in a line: Inhibition of Mycobacterium tuberculosis shikimate dehydrogenase using shikimic acid as substrate in presence of NADP+ by spectrophotometric analysis.
The subject of series [2] is Mycobacterium tuberculosis. Briefly: Antibacterial activity against Mycobacterium tuberculosis H37Rv ATCC 25618 after 8 to 9 days by BacT/Alert MP bottle assay. Format: functional.
Series [3] can be described thus: Cytotoxicity against African green monkey Vero cells assessed as reduction in cell viability by Alamar blue assay. Type of series: toxicity, cell-based. The following applies: African green monkey (Chlorocebus sabaeus). On the technique in general: Resazurin is reduced to fluorescent resorufin, in cell work by metabolically active cells.
Series [4] in a line: Cytotoxicity against human HepG2 cells assessed as reduction in cell viability by Alamar blue assay. Format: toxicity, cell-based.
Series [5] can be described thus: Selectivity index, ratio of IC50 for African green monkey Vero cells to MIC for Mycobacterium tuberculosis H37Rv ATCC 25618. As to conditions: read-out: Selectivity Index. Type of series: toxicity, cell-based.
Series [6] in a line: Selectivity index, ratio of IC50 for human HepG2 cells to MIC for Mycobacterium tuberculosis H37Rv ATCC 25618. Format: toxicity, cell-based. The following applies: read-out: Selectivity Index.

On to `COc1ccc(C2=Nn3c(nnc3-c3ccncc3)SC2)cc1`, for which the IC50 in series [1] worked out at 20.99 µg/mL. Consider `c1ccc(C2=Nn3c(nnc3-c3ccncc3)SC2)cc1`, for which, in series [2], the MIC worked out at 8 µg/mL. Still for that read-out and setting: then `Fc1ccc(C2=Nn3c(Cc4ccc5ccccc5c4)nnc3SC2)cc1`, with more than 8 µg/mL; and `COc1ccc(C2=Nn3c(nnc3-c3ccc(Cl)cc3)SC2)cc1`, with more than 8 µg/mL; and `COc1ccc(C2=Nn3c(nnc3-c3ccc(Br)cc3)SC2)cc1`, with 8 µg/mL. On to `O=[N+]([O-])c1ccc(C2=Nn3c(nnc3-c3ccc(Br)cc3)SC2)cc1`, for which the MIC in series [2] turned out to be 0.6 µM. In addition, the IC50 in series [1] came to 86.39 µg/mL; in series [3] it was 13.9 µM; in series [4], 10.4 µM. For the same compound, the values for the selectivity ratio in series [5] and in series [6] were 23.2 and 17.3, respectively. `COc1ccc(C2=Nn3c(Cc4ccc5ccccc5c4)nnc3SC2)cc1` displayed a minimal inhibitory concentration (MIC) in series [2] of more than 8 µg/mL. On to `c1ccc(C2=Nn3c(nnc3-c3ccccc3)SC2)cc1`, for which, in series [1], the IC50 worked out at 28.38 µg/mL. Regarding `Fc1ccc(C2=Nn3c(nnc3-c3ccc(Cl)cc3)SC2)cc1`, the MIC in series [2] is more than 8 µg/mL.

`O=[N+]([O-])c1ccc(C2=Nn3c(Cc4ccc5ccccc5c4)nnc3SC2)cc1` came in with an MIC in series [2] of 9.95 µM. For the same compound, the IC50 in series [1] amounted to 11.68 µg/mL; in series [3] it was 69.7 µM; in series [4], 72.6 µM. Moreover, the selectivity ratio in series [5] worked out at 7.01; in series [6], 7.29. As for `O=[N+]([O-])c1ccc(C2=Nn3c(nnc3-c3ccncc3F)SC2)cc1`, in series [2], inhibition of growth (MIC) required 2.8 µM. Further, the figures for the IC50 in series [1], in series [3] and in series [4] were 73.57 µg/mL, 355 µM and 166 µM, respectively. Further, the selectivity ratio was determined as 127 in series [5] and 59.2 in series [6].

In turn, `O=[N+]([O-])c1ccc(C2=Nn3c(nnc3-c3ccc(Cl)cc3)SC2)cc1` gave an MIC in series [2] of 8 µg/mL. Same read-out and setting: with `Fc1ccc(C2=Nn3c(nnc3-c3ccc(Br)cc3)SC2)cc1` the figure was more than 8 µg/mL. Same read-out and setting: with `Fc1ccc(C2=Nn3c(nnc3-c3ccncc3F)SC2)cc1` the figure was more than 8 µg/mL; with `COc1ccc(-c2nnc3n2N=C(c2ccc(F)cc2)CS3)cc1`, more than 8 µg/mL. The same measure, in the same setting: then `Fc1cnccc1-c1nnc2n1N=C(c1ccccc1)CS2`, with more than 8 µg/mL; and `COc1ccc(C2=Nn3c(nnc3-c3ccccc3)SC2)cc1`, with more than 8 µg/mL; and `c1ccc(C2=Nn3c(Cc4ccc5ccccc5c4)nnc3SC2)cc1`, with more than 8 µg/mL. Compound `Fc1ccc(-c2nnc3sc(COc4ccccc4)nn23)cc1` returned an MIC in series [2] of 24.5 µM. The IC50 amounted to 23 µg/mL in series [1], 71 µM in series [3] and 46.6 µM in series [4]. In addition, the selectivity ratio was 2.9 in series [5] and 1.9 in series [6]. `Fc1ccc(C2=Nn3c(nnc3-c3ccccc3)SC2)cc1` registered an MIC in series [2] of more than 8 µg/mL. The same measure, in the same setting: then `Clc1ccc(-c2nnc3sc(COc4ccc(Br)cc4)nn23)cc1`, with 0.5 µg/mL; and `Clc1ccc(-c2nnc3n2N=C(c2ccccc2)CS3)cc1`, with more than 8 µg/mL. On the same count and under the same terms, with `COc1ccc(C2=Nn3c(nnc3-c3ccncc3F)SC2)cc1` the figure was 8 µg/mL; with `Brc1ccc(OCc2nn3c(-c4ccc(Br)cc4)nnc3s2)cc1`, 0.5 µg/mL. Still for that read-out and setting: with `COc1ccc(-c2nnc3n2N=C(c2ccc([N+](=O)[O-])cc2)CS3)cc1` the figure was more than 8 µg/mL; with `COc1ccc(-c2nnc3n2N=C(c2ccccc2)CS3)cc1`, more than 8 µg/mL; with `Fc1ccc(C2=Nn3c(nnc3-c3ccncc3)SC2)cc1`, more than 8 µg/mL. `Brc1ccc(-c2nnc3n2N=C(c2ccccc2)CS3)cc1` yielded an MIC in series [2] of 0.67 µM. For the same compound, the IC50 came out at 252.5 µg/mL in series [1], 58.5 µM in series [3] and 235 µM in series [4]. Further, the selectivity ratio came out at 87.3 in series [5] and 350 in series [6].

For `O=[N+]([O-])c1ccc(C2=Nn3c(nnc3-c3ccccc3)SC2)cc1`, the MIC in series [2] is more than 8 µg/mL. Same read-out and setting: then `COc1ccc(C2=Nn3c(nnc3-c3ccc(OC)cc3)SC2)cc1`, with more than 8 µg/mL; and `NNC(=O)c1ccncc1` [ISONIAZID], with 0.12 µg/mL; and `CO[C@H]1/C=C/O[C@@]2(C)Oc3c(C)c(O)c4c(O)c(c(/C=N/N5CCN(C)CC5)c(O)c4c3C2=O)NC(=O)/C(C)=C\C=C\[C@H](C)[C@H](O)[C@@H](C)[C@@H](O)[C@@H](C)[C@H](OC(C)=O)[C@@H]1C` [RIFAMPIN], with 0.25 µg/mL.
